For ten compounds, Activity, IC50 and inhibition results are on record in ChEMBL document CHEMBL1148664, “Synthesis and biological evaluation of rhodanine derivatives as PRL-3 inhibitors” (Bioorg Med Chem Lett, 2006).

A word on the IC50: it is the concentration that inhibits the measured activity by half.

The source made the active and inactive calls. The rule behind the calls is not given here.

T1 sequence (O75365 whole entry): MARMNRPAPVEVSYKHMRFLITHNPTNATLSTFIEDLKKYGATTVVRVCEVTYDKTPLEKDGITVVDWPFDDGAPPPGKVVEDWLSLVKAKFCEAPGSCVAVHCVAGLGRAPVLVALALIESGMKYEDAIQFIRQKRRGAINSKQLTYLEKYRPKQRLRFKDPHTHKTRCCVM

The test system of one test is B16-F10. Briefly: Ability to reduce the invasiveness of tumor in B16F10 cells. The test is classed as functional, cell-based. The note with it: Mus musculus.
With `O=C1NC(=S)S/C1=C\c1cc(Br)ccc1OCc1ccccc1Br`, the result was Active.
The same measure, in the same setting: to `O=C1NC(=S)S/C1=C\c1cc2ccccc2cc1OCc1c(F)cccc1Cl` belongs “Active”.

The next test addresses T1, Protein tyrosine phosphatase type IVA 3 (Homo sapiens, UniProt O75365). The experiment in a line: Inhibition of human recombinant PRL-3.
Conditions: not given
`O=C1NC(=S)S/C1=C\c1cc(Br)ccc1O`: the concentration for half-maximal inhibition (IC50) was found to be 9.5 µM.
With `N=C(N)c1ccc(OCCCCCOc2ccc(C(=N)N)cc2)cc1` [PENTAMIDINE], the IC50 came to 53.6 µM.

Another test concerns the target T1, Protein tyrosine phosphatase type IVA 3. Briefly: Inhibition of human recombinant PRL-3 up to 50 uM.
Conditions: not given
As for `CN1C(=O)/C(=C/c2cc(Br)ccc2OCc2ccccc2)SC1=S`, the inhibition result was “inactive”.
Still for that read-out and setting: to `O=C1NC(=S)S/C1=C\c1cc(Br)ccc1OCc1cccnc1` belongs “inactive”.
`CS(=O)(=O)Oc1ccc(Br)cc1/C=C1\SC(=S)NC1=O`: the inhibition result was “inactive”.
For `O=C1NC(=S)S/C1=C\c1ccccc1OCc1ccccc1`, the inhibition result is “inactive”.
On the same count and under the same terms, to `O=C1NC(=O)/C(=C/c2cc(Br)ccc2OCc2ccccc2)S1` belongs “inactive”.
Regarding `O=Cc1cc(Br)ccc1O`, the inhibition result is “inactive”.
